According to patent publication US20250171516A1, “PEPTIDE ACIDS AS A GLP1R AGONIST AND ANTIBODY-DRUG CONJUGATES THEREOF” (Regeneron Pharmaceuticals, Inc., priority 2023, published 2025):
Like-named read-outs stand apart in the source and are kept apart here. Starred links: 1 amine or outer side, 2 acyl side, 3 side chain; linkers in the order of their positions; H or OH if unused. Non-standard residues stand in square brackets, D forms with d. Residues, ends and D or L forms follow the SMILES beside them. Groups on a side chain read outwards from the residue. *: point of attachment. X2 = CCc1cc(OCCCCn2cc(COCCOCCOCCOCCOCCOCCOCCOCCN[*:3])nn2)ccc1-c1ccc(C[C@H](N[*:1])C(=O)[*:2])cc1; Bip(2'-Et,4'-O(CH2)4N3) = CCc1cc(OCCCCN=[N+]=[N-])ccc1-c1ccc(C[C@H](N)C(=O)O)cc1; Bip(2'-Et,4'-O(CH2)4NH2) = CCc1cc(OCCCCN)ccc1-c1ccc(C[C@H](N)C(=O)O)cc1; Malonyl(2,2-Me2,histaminyl) = CC(C)(C(=O)NCCc1cnc[nH]1)C(=O)*; Nva(5-(3,5-Me2Ph)) = Cc1cc(C)cc(CCC[C@H](N)C(=O)O)c1; Ala(1H-tetrazol-5-yl) = N[C@@H](Cc1nnn[nH]1)C(=O)O; αMePhe(2-F) = C[C@](N)(Cc1ccccc1F)C(=O)O; γGlu = O=C(O)[C@H](CCC(=O)[*:2])N[*:1]

Target: GLP-1R (Homo sapiens, UniProt P43220)
Test: GLP-1R cAMP assay of peptides (Tables 10, 14, 15)
Type: cell-based
[1] = Table 10, read-out: GLP-1R CAMP EC50
[2] = Table 15, peptide acids, read-out: cAMP EC50
[3] = Table 14, peptide amides, read-out: cAMP EC50

GLP-1R, sequence (P43220 24-463): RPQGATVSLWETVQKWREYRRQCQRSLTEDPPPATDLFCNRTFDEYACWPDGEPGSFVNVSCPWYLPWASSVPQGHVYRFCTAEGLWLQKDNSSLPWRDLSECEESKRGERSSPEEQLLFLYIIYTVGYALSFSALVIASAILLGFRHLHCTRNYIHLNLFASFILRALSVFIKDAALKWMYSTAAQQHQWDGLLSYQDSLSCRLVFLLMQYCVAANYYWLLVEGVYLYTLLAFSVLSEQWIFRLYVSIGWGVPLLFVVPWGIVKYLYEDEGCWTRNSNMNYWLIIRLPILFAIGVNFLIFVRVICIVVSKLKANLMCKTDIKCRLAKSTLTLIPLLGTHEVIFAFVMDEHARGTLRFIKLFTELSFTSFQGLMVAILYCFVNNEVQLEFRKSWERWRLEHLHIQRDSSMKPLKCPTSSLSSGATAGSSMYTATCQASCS

SMILES	GLP-1R CAMP Max (Table 10) [%]	EC50 [1] [nM]	EC50 [3] [nM]	further results
C[C@@H](O)[C@H](NC(=O)CNC(=O)[C@H](Cc1nn[nH]n1)NC(=O)C(C)(C)C(=O)NCCc1cnc[nH]1)C(=O)O [AA10-AA9-AA8-AA7-OH]	−0.52	> 1000		
C[C@@H](O)[C@H](NC(=O)[C@](C)(Cc1ccccc1F)NC(=O)[C@@H](NC(=O)CNC(=O)[C@H](Cc1nn[nH]n1)NC(=O)C(C)(C)C(=O)NCCc1cnc[nH]1)[C@@H](C)O)C(=O)O [AA10-AA9-AA8-AA7-AA6-AA5-OH] ({Malonyl(2,2-Me2,histaminyl)}-[Ala(1H-tetrazol-5-yl)]GT[αMePhe(2-F)]T-OH)	−1.23	> 1000		
CCc1cc(OCCCCn2cc(COCCOCCOCCOCCOCCOCCOCCOCCNC(=O)CC[C@H](NC(=O)[C@H](CC(C)C)NC(=O)[C@@H](N)CC(C)C)C(=O)O)nn2)ccc1-c1ccc(C[C@H](NC(=O)[C@H](CC(=O)O)NC(=O)[C@H](CO)NC(=O)[C@@H](NC(=O)[C@](C)(Cc2ccccc2F)NC(=O)[C@@H](NC(=O)CNC(=O)[C@H](Cc2nnn[nH]2)NC(=O)C(C)(C)C(=O)NCCc2cnc[nH]2)[C@@H](C)O)[C@@H](C)O)C(=O)N[C@@H](CCCc2cc(C)cc(C)c2)C(=O)O)cc1 [M6297] ({Malonyl(2,2-Me2,histaminyl)}-[Ala(1H-tetrazol-5-yl)]GT[αMePhe(2-F)]TSD[X2]([γGlu-Leu-Leu])[Nva(5-(3,5-Me2Ph))]-OH)	103.80			EC50: 13.4 nM
CCc1cc(OCCCCN=[N+]=[N-])ccc1-c1ccc(C[C@H](NC(=O)[C@H](CC(=O)O)NC(=O)[C@H](CO)NC(=O)[C@@H](NC(=O)[C@](C)(Cc2ccccc2F)NC(=O)[C@@H](NC(=O)CNC(=O)[C@H](Cc2nn[nH]n2)NC(=O)C(C)(C)C(=O)NCCc2cnc[nH]2)[C@@H](C)O)[C@@H](C)O)C(=O)O)cc1 [M6320]				EC50 [2]: 51.2 nM
CCc1cc(OCCCCN=[N+]=[N-])ccc1-c1ccc(C[C@H](NC(=O)[C@H](CC(=O)O)NC(=O)[C@H](CO)NC(=O)[C@@H](NC(=O)[C@](C)(Cc2ccccc2F)NC(=O)[C@@H](NC(=O)CNC(=O)[C@H](Cc2nnn[nH]2)NC(=O)C(C)(C)C(=O)NCCc2cnc[nH]2)[C@@H](C)O)[C@@H](C)O)C(=O)N[C@@H](CCCc2cc(C)cc(C)c2)C(N)=O)cc1 [M2361] ({Malonyl(2,2-Me2,histaminyl)}-[Ala(1H-tetrazol-5-yl)]GT[αMePhe(2-F)]TSD[Bip(2'-Et,4'-O(CH2)4N3)][Nva(5-(3,5-Me2Ph))]-NH2)			0.497	
C[C@@H](O)[C@H](NC(=O)CNC(=O)[C@H](Cc1nn[nH]n1)NC(=O)C(C)(C)C(=O)NCCc1cnc[nH]1)C(=O)N[C@@](C)(Cc1ccccc1F)C(=O)N[C@H](C(=O)N[C@@H](CO)C(=O)O)[C@@H](C)O [AA10-AA9-AA8-AA7-AA6-AA5-AA4-OH] ({Malonyl(2,2-Me2,histaminyl)}-[Ala(1H-tetrazol-5-yl)]GT[αMePhe(2-F)]TS-OH)	−0.86	> 1000		

Continued, in another order:

GLP-1R CAMP Max (Table 10) [%]	EC50 [1] [nM]	EC50 [3] [nM]	SMILES	further results
33.86	> 1000		CCc1cc(OCCCCn2cc(COCCOCCOCCOCCOCCOCCOCCOCCNC(=O)CC[C@H](NC(=O)[C@H](CC(C)C)NC(=O)[C@@H](N)CC(C)C)C(=O)O)nn2)ccc1-c1ccc(C[C@H](NC(=O)[C@H](CC(=O)O)NC(=O)[C@H](CO)NC(=O)[C@@H](NC(=O)C(C)(Cc2ccccc2F)NC(=O)[C@@H](NC(=O)CNC(=O)[C@H](Cc2nn[nH]n2)NC(=O)C(C)(C)C(=O)NCCc2cnc[nH]2)[C@@H](C)O)[C@@H](C)O)C(=O)O)cc1 (stereo partly shown) [M6321]	EC50 [2]: > 1000 nM
		0.0502	CCc1cc(OCCCCN)ccc1-c1ccc(C[C@H](NC(=O)[C@H](CC(=O)O)NC(=O)[C@H](CO)NC(=O)[C@@H](NC(=O)[C@](C)(Cc2ccccc2F)NC(=O)[C@@H](NC(=O)CNC(=O)[C@H](Cc2nnn[nH]2)NC(=O)C(C)(C)C(=O)NCCc2cnc[nH]2)[C@@H](C)O)[C@@H](C)O)C(=O)N[C@@H](CCCc2cc(C)cc(C)c2)C(N)=O)cc1 [M2642] ({Malonyl(2,2-Me2,histaminyl)}-[Ala(1H-tetrazol-5-yl)]GT[αMePhe(2-F)]TSD[Bip(2'-Et,4'-O(CH2)4NH2)][Nva(5-(3,5-Me2Ph))]-NH2)	
		280	CCc1cc(OCCCCN=[N+]=[N-])ccc1-c1ccc(C[C@H](NC(=O)[C@H](CC(=O)O)NC(=O)[C@H](CO)NC(=O)[C@@H](NC(=O)[C@](C)(Cc2ccccc2F)NC(=O)[C@@H](NC(=O)CNC(=O)[C@@H](N)Cc2nn[nH]n2)[C@@H](C)O)[C@@H](C)O)C(=O)N[C@@H](CCCc2cc(C)cc(C)c2)C(N)=O)cc1 [M2383] (H-[Ala(1H-tetrazol-5-yl)]GT[αMePhe(2-F)]TSD[Bip(2'-Et,4'-O(CH2)4N3)][Nva(5-(3,5-Me2Ph))]-NH2)	
		0.359	CCc1cc(OCCCCN=[N+]=[N-])ccc1-c1ccc(C[C@H](NC(=O)[C@H](CC(=O)O)NC(=O)[C@H](CO)NC(=O)[C@@H](NC(=O)[C@](C)(Cc2ccccc2F)NC(=O)[C@@H](NC(=O)CNC(=O)[C@H](Cc2nn[nH]n2)NC(=O)C(C)(C)C(=O)NCCc2cnc[nH]2)[C@@H](C)O)[C@@H](C)O)C(=O)N[C@@H](CCCc2cc(C)cc(C)c2)C(N)=O)cc1 [M2361] ({Malonyl(2,2-Me2,histaminyl)}-[Ala(1H-tetrazol-5-yl)]GT[αMePhe(2-F)]TSD[Bip(2'-Et,4'-O(CH2)4N3)][Nva(5-(3,5-Me2Ph))]-NH2)	
